Measured values as given in article PMC10682394, “A papain-like cysteine protease-released small signal peptide confers wheat resistance to wheat yellow mosaic virus” (Nature Communications, 2023).
Peptide text beside a SMILES is read from it. * marks the point of attachment. AMC = Cc1cc(=O)oc2cc(N*)ccc12; Cbz = O=C(OCc1ccccc1)*

Target: T1, TaRD21A (TaRD21A^S; TaRD21A^R in A96S rows) (Triticum aestivum, UniProt A0A3B6DKH2)
T1 construct: gene LOC123054921; GST fusion from E. coli BL21 (purified), or RFP fusion expressed in N. benthamiana leaves (apoplastic fluid); active bands 25-40 kDa
Assay: fluorescent substrate assay, purified TaRD21A^S-GST
Format: biochemical
Conditions: 10 uM substrate

T1 sequence (A0A3B6DKH2 24-463, stated change not applied): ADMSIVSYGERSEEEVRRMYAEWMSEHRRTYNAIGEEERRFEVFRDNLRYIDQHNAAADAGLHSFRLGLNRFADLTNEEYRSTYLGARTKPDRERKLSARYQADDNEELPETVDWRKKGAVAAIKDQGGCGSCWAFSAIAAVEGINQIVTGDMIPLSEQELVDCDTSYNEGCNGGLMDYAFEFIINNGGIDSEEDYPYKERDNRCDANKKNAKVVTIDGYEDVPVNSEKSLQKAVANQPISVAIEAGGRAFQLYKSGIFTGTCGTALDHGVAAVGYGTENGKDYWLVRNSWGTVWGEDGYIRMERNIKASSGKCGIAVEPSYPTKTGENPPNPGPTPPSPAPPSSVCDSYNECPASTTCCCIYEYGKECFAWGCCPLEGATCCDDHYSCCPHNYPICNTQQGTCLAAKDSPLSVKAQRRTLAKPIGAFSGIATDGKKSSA

Row | SMILES | fluorescent substrate assay, purified TaRD21A^S-GST (RR motif) | fluorescent substrate assay, purified TaRD21A^S-GST (FR motif)
1 | Cc1cc(=O)oc2cc(NC(=O)[C@H](CCCNC(=N)N)NC(=O)[C@H](CCCNC(=N)N)NC(=O)OCc3ccccc3)ccc12 [Z-Arg-Arg-AMC] (Cbz-Arg-Arg-{AMC}) | examined using fluorescent substrates containing RR/FR motifs | –
2 | Cc1cc(=O)oc2cc(NC(=O)[C@H](CCCNC(=N)N)NC(=O)[C@H](Cc3ccccc3)NC(=O)OCc3ccccc3)ccc12 [Z-Phe-Arg-7-amido-4-methylcoumarin] (Cbz-Phe-Arg-{AMC}) | – | examined using fluorescent substrates containing RR/FR motifs
